In patent publication US10363251B2, “(+)-morphinans as antagonists of toll-like receptor 9 and therapeutic uses thereof” (Mallinckrodt LLC, priority 2009, dated 2019):

Target: T1, TLR9 (Homo sapiens, UniProt Q9NR96)
T1 construct: expressed in transfected cells; host or cells: HEK293
T1 sequence (Q9NR96 26-1032): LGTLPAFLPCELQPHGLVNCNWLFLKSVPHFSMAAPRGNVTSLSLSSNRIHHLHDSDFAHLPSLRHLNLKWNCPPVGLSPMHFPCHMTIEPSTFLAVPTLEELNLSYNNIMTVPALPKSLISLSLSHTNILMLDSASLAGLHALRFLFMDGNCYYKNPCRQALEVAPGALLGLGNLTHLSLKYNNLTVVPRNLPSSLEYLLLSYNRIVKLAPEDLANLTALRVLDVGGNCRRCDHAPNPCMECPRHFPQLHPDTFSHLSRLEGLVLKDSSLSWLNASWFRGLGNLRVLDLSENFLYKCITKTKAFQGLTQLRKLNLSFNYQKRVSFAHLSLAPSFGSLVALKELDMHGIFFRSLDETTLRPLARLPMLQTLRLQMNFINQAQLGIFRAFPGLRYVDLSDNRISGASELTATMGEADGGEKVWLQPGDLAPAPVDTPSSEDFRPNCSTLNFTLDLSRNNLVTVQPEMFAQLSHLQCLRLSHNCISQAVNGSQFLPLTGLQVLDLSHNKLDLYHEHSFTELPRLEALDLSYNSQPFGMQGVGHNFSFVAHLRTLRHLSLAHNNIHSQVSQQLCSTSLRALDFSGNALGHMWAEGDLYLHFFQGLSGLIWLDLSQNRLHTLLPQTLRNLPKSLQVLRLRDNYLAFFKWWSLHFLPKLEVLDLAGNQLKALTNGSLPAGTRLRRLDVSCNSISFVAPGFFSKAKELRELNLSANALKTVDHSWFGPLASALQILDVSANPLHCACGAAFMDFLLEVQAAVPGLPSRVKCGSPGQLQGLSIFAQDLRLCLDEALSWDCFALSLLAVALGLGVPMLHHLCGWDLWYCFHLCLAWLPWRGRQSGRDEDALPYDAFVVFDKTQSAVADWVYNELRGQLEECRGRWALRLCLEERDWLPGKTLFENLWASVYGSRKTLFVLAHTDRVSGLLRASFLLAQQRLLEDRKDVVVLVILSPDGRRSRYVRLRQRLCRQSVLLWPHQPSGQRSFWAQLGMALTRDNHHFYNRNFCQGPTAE
Assay: TLR9 screening of (+)-morphinan library, SEAP reporter in HEK293 cells expressing TLR9
Assay type: cell-based
Settings: activator ODN2006; for OD 650 nm (mean ± sd): control (no activator) 0.14, activator 1.42 OD; for inhibition at 0.1 µM: HEK293, read-out: % Inhibition (mean), 100 nM; for inhibition at 10 µM: HEK293, read-out: % Inhibition (mean), 10 μM
Procedure: The secreted alkaline phosphatase reporter is under the control of a promoter inducible by the transcription factor NF-κB. A library of more than 100 (+)-morphinan compounds was screened for TLR9 antagonist activity by assessing NF-κB activation in the HEK293 cells expressing TLR9. This reporter gene allows the monitoring of signaling through the TLR, based on the activation of NF-κB.
In a 96-well plate (200 μL total volume) containing 50,000 cells/well, 20 μL of each sample compound was added to wells, in triplicate, followed by a 30 minute incubation at 37° C. and 5% CO2. After the 30 minutes of incubation, 20 μL of the activator ODN2006 was added to each well. The media added to the wells was designed for the detection of NF-κB induced SEAP expression. After a 16-20 hr incubation period, the OD at 650 nm was read on a Beckman Coulter AD 340C Absorbance Detector. All compounds were tested at concentrations of 10 μM and 100 nM.

Compound | OD 650 nm (mean ± sd) (100 nM) [OD] | OD 650 nm (mean ± sd) (10 μM) [OD] | inhibition at 0.1 µM [%] | inhibition at 10 µM [%]
COc1ccc2c3c1OC1C(OC(C)=O)CCC4C(C2)N(C)CC[C@]341 (stereo partly shown) [II-8] | 1.15 ± 0.07 | 1.33 ± 0.06 | 19 | 7
COc1ccc2c3c1O[C@@H]1C(NC(C)=O)CC[C@@H]4[C@H](C2)N(C)CC[C@@]314 (stereo partly shown) [II-9] | 1.25 ± 0.09 | 1.00 ± 0.02 | 12 | 29
COc1ccc2c3c1O[C@@H]1C(NCCO)CC[C@@H]4[C@H](C2)N(C)CC[C@@]314 (stereo partly shown) [II-10] | 0.24 ± 0.02 | 0.10 ± 0.01 | 83 | 93
COc1cc(Br)c2c3c1OC1C(=O)CC[C@@H]4[C@H](C2)N(C)CC[C@@]314 (stereo partly shown) [II-11] | 1.22 ± 0.10 | 0.44 ± 0.05 | 14 | 69
COc1ccc2c3c1O[C@@H]1C(=O)CC[C@@H]4[C@H](C2)NCC[C@@]314 [II-12] | 1.12 ± 0.08 | 0.81 ± 0.03 | 21 | 43
COC(=O)/C=C/c1cc(OC)c(O)c2c1CC1C3CCC(=O)C[C@@]23CCN1CC1CC1 (stereo partly shown) [II-14] | 1.18 ± 0.05 | 0.13 ± 0.00 | 17 | 91
COC(=O)/C=C/c1cc(OC)c2c3c1CC1C4CCC(=O)[C@@H](O2)[C@@]34CCN1CC1CC1 (stereo partly shown) [II-15] | 1.22 ± 0.06 | 0.23 ± 0.03 | 14 | 84
C=CCN1CC[C@@]23c4c5c(Br)cc(OC)c4O[C@@H]2C(=O)CCC3C1C5 (stereo partly shown) [II-16] | 1.43 ± 0.01 | 1.24 ± 0.11 | -1 | 13
COc1ccc2c3c1O[C@@H]1C(O)CC[C@@H]4[C@H](C2)N(CC2CC2)CC[C@@]314 (stereo partly shown) [II-17] | 1.13 ± 0.10 | 0.39 ± 0.01 | 21 | 72
C=CCN1CC[C@@]23c4c5ccc(OC)c4OC2C(O)CCC3C1C5 (stereo partly shown) [II-19] | 1.19 ± 0.03 | 0.15 ± 0.01 | 16 | 90
C=CCN1CC[C@@]23c4c5ccc(OC)c4O[C@@H]2C(NC(C)=O)CC[C@@H]3[C@@H]1C5 (stereo partly shown) [II-20] | 1.29 ± 0.02 | 1.07 ± 0.04 | 9 | 25
C=CCN1CC[C@@]23c4c5ccc(OC)c4O[C@@H]2C(=C)CC[C@@H]3[C@@H]1C5 [II-22] | 1.31 ± 0.19 | 0.75 ± 0.06 | 8 | 47
COc1cc(Br)c2c3c1O[C@@H]1C(=O)CCC4C(C2)N(CC2CC2)CC[C@]341 (stereo partly shown) [II-23] | 1.16 ± 0.01 | 0.53 ± 0.05 | 18 | 63
COc1cc(-c2ccoc2)c2c3c1O[C@@H]1C(=O)CCC4C(C2)N(CC2CC2)CC[C@]341 (stereo partly shown) [II-26] | 1.08 ± 0.06 | 0.12 ± 0.00 | 24 | 92
COc1ccc2c3c1O[C@@H]1C(O)CC[C@@H]4[C@H](C2)N(CC2CCC2)CC[C@@]314 (stereo partly shown) [II-28] | 1.32 ± 0.08 | 0.87 ± 0.03 | 7 | 39
COc1ccc2c3c1O[C@@H]1C(=O)CC[C@@H]4[C@H](C2)N(Cc2ccccc2)CC[C@@]314 [II-29] | 1.36 ± 0.17 | 0.33 ± 0.03 | 4 | 77
